Laboratory results: EPA's ToxRefDB 2

Tests used:
rat [1] = conditions: Peri- and post-natal toxicity study (Segment III); sprague dawley; Oral; Gavage/Intubation; dose end: 40 PND; group: parental; systemic / clinical chemistry / estradiol / estradiol + systemic / organ weight / adrenal gland / absolute
dog = conditions: Chronic toxicity, beagle, Oral, Gavage/Intubation, dose end: 12 month, group: systemic
mouse = conditions: Carcinogenicity; cd1; Oral; Feed; dose end: 78 week; group: systemic; systemic / in life observation / body weight / body weight + systemic / in life observation / body weight / body weight gain
rat [2] = conditions: Subchronic dermal toxicity, sprague dawley, Topical, dose end: 90 day, group: systemic
rat [3] = conditions: Prenatal developmental toxicity study, sprague dawley, Oral, Gavage/Intubation, dose end: 15 GD
rat [4] = conditions: Combined chronic toxicity/carcinogenicity; sprague dawley; Oral; Feed; dose end: 104 week; group: systemic; systemic / pathology microscopic / lymph node / hemorrhage + systemic / pathology microscopic / lymph node / hemosiderosis + systemic / …
rat [5] = conditions: Multigenerational reproductive toxicity study, sprague dawley, Oral, Feed, dose end: 2 generation
rabbit = conditions: Prenatal developmental toxicity study, new zealand white, Oral, Gavage/Intubation, dose end: 18 GD
rat [6] = conditions: Subchronic oral toxicity in rodents, sprague dawley, Feed, dose end: 90 day, group: systemic, systemic / in life observation / body weight / body weight + systemic / in life observation / body weight / body weight gain + systemic / in…
rat [7] = conditions: Combined chronic toxicity/carcinogenicity, sprague dawley, Oral, Feed, dose end: 104 week, group: systemic
[8] = systemic / clinical chemistry / cholesterol / cholesterol + systemic / in life observation / clinical signs / emesis + systemic / in life …
[9] = systemic / pathology microscopic / skin / acanthosis
[10] = group: developmental, developmental / developmental malformation / bone / [other] + developmental / developmental malformation / bone / incomplete ossification + …
[11] = group: maternal, systemic / in life observation / clinical signs / abnormal respiratory sounds
[12] = group: maternal, systemic / in life observation / clinical signs / abnormal respiratory sounds + systemic / in life observation / body weight / body weight …
[13] = group: offspring, systemic / in life observation / body weight / offspring (pup) weight + systemic / in life observation / body weight / offspring (pup) …
[14] = group: parental, systemic / in life observation / body weight / body weight + systemic / in life observation / body weight / body weight gain + systemic / in…
[15] = group: developmental, systemic / in life observation / body weight / fetal weight
[16] = group: maternal, systemic / in life observation / body weight / body weight gain + systemic / in life observation / clinical signs / abnormal respiratory …
[17] = group: maternal, systemic / in life observation / clinical signs / defecation (diarrhea) + systemic / in life observation / clinical signs / oral discharge
[18] = systemic / pathology microscopic / kidney / adenoma + systemic / organ weight / kidney / absolute + systemic / organ weight / kidney / …

## CCOC(=O)c1ccc(O)cc1 [Ethylparaben]
Rat [1]
  LEL: 1000 mg/kg/day
  LOAEL: > 1000 mg/kg/day
  NEL: 250 mg/kg/day
  NOAEL: ≥ 1000 mg/kg/day

## CCCCCCCCCC[N+](C)(C)CCCCCCCCCC.[Cl-] [Didecyldimethylammonium chloride]
dog; [8]
  LOAEL: 20 mg/kg/day
  NEL: 3 mg/kg/day
  NOAEL: 10 mg/kg/day
dog; systemic / in life observation / clinical signs / emesis + systemic / in life observation / clinical signs / mucoid stools + systemic / in …
  LEL: 10 mg/kg/day
mouse
  LEL: 156 mg/kg/day
  LOAEL: 156 mg/kg/day
  NEL: 76.3 mg/kg/day
  NOAEL: 76.3 mg/kg/day
Rat [2]; [9]
  LEL: 2 mg/kg/day
  NEL: < 2 mg/kg/day
Rat [2]; systemic / pathology microscopic / skin / acanthosis + systemic / pathology microscopic / skin / inflammation
  LOAEL: 6 mg/kg/day
Rat [2]; systemic / pathology microscopic / skin / acanthosis + systemic / pathology microscopic / skin / inflammation + systemic / in life …
  NOAEL: 2 mg/kg/day
Rat [3]; [10]
  LEL: 20 mg/kg/day
  LOAEL: 20 mg/kg/day
  NEL: 10 mg/kg/day
  NOAEL: 10 mg/kg/day
Rat [3]; [11]
  LEL: 10 mg/kg/day
  LOAEL: 10 mg/kg/day
Rat [3]; [12]
  NEL: 1 mg/kg/day
  NOAEL: 1 mg/kg/day
Rat [4]
  LEL: 64 mg/kg/day
  LOAEL: 64 mg/kg/day
  NEL: 32 mg/kg/day
  NOAEL: 32 mg/kg/day
Rat [5]; [13]
  LEL: 101 mg/kg/day
  LOAEL: 101 mg/kg/day
  NEL: 48.2 mg/kg/day
  NOAEL: 48.2 mg/kg/day
Rat [5]; [14]
  LEL: 101 mg/kg/day
  LOAEL: 101 mg/kg/day
  NEL: 48.2 mg/kg/day
  NOAEL: 48.2 mg/kg/day
rabbit; [15]
  LEL: 10 mg/kg/day
  LOAEL: 10 mg/kg/day
  NEL: 3 mg/kg/day
  NOAEL: 3 mg/kg/day
rabbit; [16]
  LOAEL: 3 mg/kg/day
  NOAEL: 1 mg/kg/day
rabbit; [17]
  LEL: 1 mg/kg/day
  NEL: < 1 mg/kg/day
Rat [6]
  LEL: 175 mg/kg/day
  LOAEL: 175 mg/kg/day
  NEL: 60.7 mg/kg/day
  NOAEL: 60.7 mg/kg/day

## O=P(OC(CCl)CCl)(OC(CCl)CCl)OC(CCl)CCl [TDCPP]
Rat [7]; systemic / pathology microscopic / adrenal gland / adenoma + systemic / pathology microscopic / kidney / adenoma + systemic / pathology …
  NEL: 5 mg/kg/day
Rat [7]; [18]
  LEL: 20 mg/kg/day
  LOAEL: > 80 mg/kg/day
  NOAEL: ≥ 80 mg/kg/day
